From PMC11764660, “Self-Assembled Peptide Hydrogels PPI45 and PPI47: Novel Drug Candidates for Staphylococcus aureus Infection Treatment” (Gels, 2025)
≈ marks a conversion by molar mass, not a printed value. Positions of bridges follow the written chain, without caps; N, C: chain ends. Residues, ends and D or L forms follow the SMILES beside them.

Legend:
S. aureus ATCC 25923 [1] = test: MIC assay; assay type: cell-based, Staphylococcus aureus; conditions: 96-well plate, 10^5 CFU/mL, 37 °C, 12 to 18 h
Method: (§1) A series of concentration gradients of peptide solution (10, 20, 40, 80, 160, 320, 640, and 1280 µg/mL) and the bacterial suspension (10^5 CFU/mL) were added to a 96-well plate at a volume ratio of 10 µL: 90 µL. Subsequently, the plate was incubated at 37 °C for 12 to 18 h. The concentration in the final well of the 96-well plate where no bacterial growth is evident corresponds to the MIC value.

S. aureus CVCC 546 [2] = test: MIC assay; assay type: cell-based, Staphylococcus aureus; conditions: 96-well plate, 10^5 CFU/mL, 37 °C, 12 to 18 h
Method: as §1

[3] = tested on: Streptococcus dysgalactiae CVCC 3938; test: MIC assay; assay type: cell-based; conditions: 96-well plate, 10^5 CFU/mL, 37 °C, 12 to 18 h
Method: as §1

[4] = tested on: Streptococcus agalactiae ATCC 13813; test: MIC assay; assay type: cell-based; conditions: 96-well plate, 10^5 CFU/mL, 37 °C, 12 to 18 h
Method: as §1

[5] = tested on: Staphylococcus aureus ATCC 43300; test: MIC assay; assay type: cell-based; conditions: 96-well plate, 10^5 CFU/mL, 37 °C, 12 to 18 h
Method: as §1

[6] = tested on: Staphylococcus epidermidis ATCC 12228; test: MIC assay; assay type: cell-based; conditions: 96-well plate, 10^5 CFU/mL, 37 °C, 12 to 18 h
Method: as §1

[7] = tested on: Pseudomonas aeruginosa ATCC 10104; test: MIC assay; assay type: cell-based; conditions: 96-well plate, 10^5 CFU/mL, 37 °C, 12 to 18 h
Method: as §1

[8] = tested on: Escherichia coli ATCC 25922; test: MIC assay; assay type: cell-based; conditions: 96-well plate, 10^5 CFU/mL, 37 °C, 12 to 18 h
Method: as §1

HaCaT cells = test: Cytotoxicity analysis (CCK-8); assay type: cell-based, human; conditions: 2–256 µg/mL, 24 h, CCK-8, absorbance 450 nm, six replicates
Method: HaCaT cells, at a density of 2.5 × 10^5 cells/mL, were inoculated into 96-well plates and incubated in a cell culture incubator for 24 h. Following the removal of the medium, an equal volume of peptide solution, ranging in concentration from 2 to 256 µg/mL, was added, and the cells were incubated for an additional 24 h. The medium was subsequently removed, and the wells were washed three times with saline. CCK-8 solution ([…], 100 µL per well) was then added, and the plates were incubated for 2 h. Absorbance was measured at 450 nm using a microplate reader. Saline served as the negative control, while the medium without cells was used as the blank control. Six replicates were set for each concentration. Cell survival is calculated as follows: (As − Ab)/(Ac − Ab) × 100%.
As: Absorbance value of the experimental group (medium containing cells, sample, CCK-8)
Ac: Absorbance value of the control group (medium containing cells, no sample, CCK-8)
Ab: Absorbance value of the blank group (medium without cells, no sample, CCK-8)

[9] = tested on: Streptococcus dysgalactiae CVCC 3938; test: MBC assay; assay type: cell-based; conditions: colony counting, 99.9% criterion
From the text: (§2) Microbial cultures are quantified at concentrations surpassing the MIC to ascertain the number of viable bacterial cells. The lowest concentration at which the number of colonies is less than 99.9% at the time of initial inoculation is defined as MBC, which is capable of killing the bacteria.

[10] = tested on: Streptococcus agalactiae ATCC 13813; test: MBC assay; assay type: cell-based; conditions: colony counting, 99.9% criterion
From the text: as §2

[11] = tested on: Staphylococcus aureus ATCC 43300; test: MBC assay; assay type: cell-based; conditions: colony counting at concentrations surpassing the MIC, 99.9% criterion
From the text: as §2

[12] = tested on: Staphylococcus epidermidis ATCC 12228; test: MBC assay; assay type: cell-based; conditions: colony counting, 99.9% criterion
From the text: as §2

[13] = tested on: Pseudomonas aeruginosa ATCC 10104; test: MBC assay; assay type: cell-based; conditions: colony counting, 99.9% criterion
From the text: as §2

[14] = tested on: Escherichia coli ATCC 25922; test: MBC assay; assay type: cell-based; conditions: colony counting, 99.9% criterion
From the text: as §2

S. aureus ATCC 25923 [15] = test: MBC assay; assay type: cell-based, Staphylococcus aureus; conditions: colony counting, 99.9% criterion
From the text: as §2

S. aureus CVCC 546 [16] = test: MBC assay; assay type: cell-based, Staphylococcus aureus; conditions: colony counting, 99.9% criterion
From the text: as §2

[17] = tested on: S. epidermidis ATCC 35984; test: MIC assay; assay type: cell-based, Staphylococcus epidermidis; conditions: 96-well plate, 10^5 CFU/mL, 37 °C, 12 to 18 h
Method: as §1

mouse erythrocytes = test: Hemolytic activity; assay type: cell-based; conditions: 1 h, 37 °C, absorbance 540 nm
Method: Equal volumes of the erythrocyte suspension and the peptide dilutions were combined and incubated for one hour at 37 °C. Subsequently, the mixture was centrifuged at 2000 rpm for 5 min, and the supernatant was transferred to a 96-well plate. The absorbance was then measured at 540 nm. Triton X-100 and physiological saline were employed as positive and negative controls, respectively. The percentage of hemolysis was calculated via the following formula:Hemolysis (%) = [(Apeptide − Asaline)/(A0.1% Triton X-100 − Asaline)] × 100%.

[18] = tested on: S. epidermidis ATCC 35984; test: MBC assay; assay type: cell-based, Staphylococcus epidermidis; conditions: colony counting, 99.9% criterion
From the text: as §2

[19] = concentration range 20–2560 µg/mL

SMILES	MIC (S. aureus ATCC 25923 [1]) [µg/mL]	MIC (S. aureus CVCC 546 [2]) [µg/mL]	MIC [3] [µg/mL]	MIC [4] [µg/mL]	MIC [5] [µg/mL]	MIC [6] [µg/mL]	MIC [7] [µg/mL]	MIC [8] [µg/mL]	cytotoxicity towards HaCaT cells (HaCaT cells)	MBC [9] [µg/mL]	MBC [10] [µg/mL]	MBC [11] [µg/mL]	MBC [12] [µg/mL]	MBC [13] [µg/mL]	MBC [14] [µg/mL]	MBC (S. aureus ATCC 25923 [15]) [µg/mL]	MBC (S. aureus CVCC 546 [16]) [µg/mL]	MIC [17] [µg/mL]	MBC [18] [µg/mL]	hemolysis (mouse erythrocytes; [19])	also measured
CC[C@H](C)[C@@H]1NC(=O)[C@H](CO)NC(=O)[C@H](CCCCN)NC(=O)[C@@H]2CSSC[C@@H](C(=O)N[C@@H](Cc3ccc(O)cc3)C(=O)O)NC(=O)[C@H](CCCCN)NC(=O)[C@@H]3CSSC[C@H](NC(=O)[C@H](CCCCN)NC(=O)[C@H](CCSC)NC(=O)[C@H](CC(=O)O)NC(=O)[C@H](CC(=O)O)NC(=O)[C@H](CCC(=O)O)NC(=O)[C@H](CO)NC(=O)[C@H](Cc4c[nH]c5ccccc45)NC(=O)[C@@H]4CCCN4C(=O)CNC(=O)[C@H](CC(N)=O)NC(=O)[C@@H](NC(=O)CNC(=O)[C@H](Cc4ccccc4)NC(=O)CN)CSSC[C@H](NC(=O)[C@H](Cc4ccc(O)cc4)NC(=O)CNC(=O)CNC(=O)[C@H](CCCCN)NC(=O)[C@H](Cc4ccc(O)cc4)NC(=O)CNC(=O)[C@H](CCCCN)NC1=O)C(=O)N[C@@H](C)C(=O)N[C@@H](CCCCN)C(=O)NCC(=O)NCC(=O)N[C@@H](Cc1ccccc1)C(=O)N[C@@H](CC(C)C)C(=O)N3)C(=O)N[C@@H](Cc1c[nH]cn1)C(=O)N[C@@H](CC(N)=O)C(=O)N[C@@H](Cc1c[nH]cn1)C(=O)N2 [PPI42, reference compound] (H-GFGCNGPWSEDDMKCHNHCKSIKGYKGGYCAKGGFLCKCY-OH; disulfide 4-30, 15-37, 19-39)	8 (≈ 1.82 µM)	2 (≈ 0.456 µM)	4 (≈ 0.912 µM)	0.5 (≈ 0.114 µM)	8 (≈ 1.82 µM)	4 (≈ 0.912 µM)	>64	>64	growth-promoting effects	4 (≈ 0.912 µM)	0.5 (≈ 0.114 µM)	8 (≈ 1.82 µM)	8 (≈ 1.82 µM)	>64	>64	16 (≈ 3.65 µM)	4 (≈ 0.912 µM)	2 (≈ 0.456 µM)	8 (≈ 1.82 µM)		hemolysis (mouse erythrocytes; 2560 µg/mL): 10%; hemolysis (mouse erythrocytes; up to 1280 µg/mL): minimal hemolysis
CC[C@H](C)[C@@H]1NC(=O)[C@H](CO)NC(=O)[C@H](CCCCN)NC(=O)[C@@H]2CSSC[C@@H](C(=O)N[C@@H](Cc3ccc(O)cc3)C(=O)O)NC(=O)[C@H](CCCCN)NC(=O)[C@@H]3CSSC[C@H](NC(=O)[C@H](CCCCN)NC(=O)[C@H](CCSC)NC(=O)[C@H](CC(=O)O)NC(=O)[C@H](CC(=O)O)NC(=O)[C@H](CCC(=O)O)NC(=O)[C@H](CC(N)=O)NC(=O)[C@H](Cc4c[nH]c5ccccc45)NC(=O)[C@@H]4CCCN4C(=O)CNC(=O)[C@H](CC(N)=O)NC(=O)[C@@H](NC(=O)CNC(=O)[C@H](Cc4ccccc4)NC(=O)CN)CSSC[C@H](NC(=O)[C@H](Cc4ccc(O)cc4)NC(=O)CNC(=O)CNC(=O)[C@H](CCCCN)NC(=O)[C@H](Cc4ccc(O)cc4)NC(=O)CNC(=O)[C@H](CCCCN)NC1=O)C(=O)N[C@@H](C)C(=O)N[C@@H](CCCCN)C(=O)NCC(=O)NCC(=O)N[C@@H](Cc1ccccc1)C(=O)N[C@@H](CC(C)C)C(=O)N3)C(=O)N[C@@H](Cc1c[nH]cn1)C(=O)N[C@@H](CC(N)=O)C(=O)N[C@@H](Cc1c[nH]cn1)C(=O)N2 [PPI45] (H-GFGCNGPWNEDDMKCHNHCKSIKGYKGGYCAKGGFLCKCY-OH; disulfide 4-30, 15-37, 19-39)	16 (≈ 3.62 µM)	4 (≈ 0.906 µM)	1 (≈ 0.226 µM)	0.5 (≈ 0.113 µM)	4 (≈ 0.906 µM)	4 (≈ 0.906 µM)	>64	>64	did not exhibit cytotoxicity	4 (≈ 0.906 µM)	0.5 (≈ 0.113 µM)	4 (≈ 0.906 µM)	4 (≈ 0.906 µM)	>64	>64	16 (≈ 3.62 µM)	4 (≈ 0.906 µM)	16 (≈ 3.62 µM)	16 (≈ 3.62 µM)	no hemolysis	
CC[C@H](C)[C@@H]1NC(=O)[C@H](CO)NC(=O)[C@H](CCCCN)NC(=O)[C@@H]2CSSC[C@@H](C(=O)N[C@@H](Cc3ccc(O)cc3)C(=O)O)NC(=O)[C@H](CCCCN)NC(=O)[C@@H]3CSSC[C@H](NC(=O)[C@H](CCCNC(=N)N)NC(=O)[C@H](CC(C)C)NC(=O)[C@H](CC(=O)O)NC(=O)[C@H](CC(=O)O)NC(=O)[C@H](CCC(=O)O)NC(=O)[C@H](CO)NC(=O)[C@H](Cc4c[nH]c5ccccc45)NC(=O)[C@@H]4CCCN4C(=O)CNC(=O)[C@H](CC(N)=O)NC(=O)[C@@H](NC(=O)CNC(=O)[C@H](Cc4ccccc4)NC(=O)CN)CSSC[C@H](NC(=O)[C@H](Cc4ccc(O)cc4)NC(=O)CNC(=O)CNC(=O)[C@H](CCCCN)NC(=O)[C@H](Cc4ccc(O)cc4)NC(=O)CNC(=O)[C@H](CCCCN)NC1=O)C(=O)N[C@@H](C)C(=O)N[C@@H](CCCCN)C(=O)NCC(=O)NCC(=O)N[C@@H](Cc1ccccc1)C(=O)N[C@@H](CC(C)C)C(=O)N3)C(=O)N[C@@H](Cc1c[nH]cn1)C(=O)N[C@@H](CC(N)=O)C(=O)N[C@@H](Cc1c[nH]cn1)C(=O)N2 [PPI47] (H-GFGCNGPWSEDDLRCHNHCKSIKGYKGGYCAKGGFLCKCY-OH; disulfide 4-30, 15-37, 19-39)	16 (≈ 3.64 µM)	4 (≈ 0.909 µM)	2 (≈ 0.455 µM)	0.5 (≈ 0.114 µM)	4 (≈ 0.909 µM)	4 (≈ 0.909 µM)	>64	>64	did not exhibit cytotoxicity	4 (≈ 0.909 µM)	0.5 (≈ 0.114 µM)	8 (≈ 1.82 µM)	8 (≈ 1.82 µM)	>64	>64	16 (≈ 3.64 µM)	4 (≈ 0.909 µM)	16 (≈ 3.64 µM)	16 (≈ 3.64 µM)	no hemolysis	
